In patent publication US12258337B2, “Bicyclic CX3CR1 receptor agonists” (Board of Regents, The University of Texas System, priority 2019, dated 2025):

Key:
[1] = molecular target: T1, hCX3CR1 (Homo sapiens, UniProt P49238); assay: Ga16 assay, CX3CR1 agonism, Ca2+ sensitive photo-protein readout (FLIPRTETRA); type: cell-based; parameters: expressed in transfected cells; stably expresses a Ca2+ sensitive photo-protein; conditions: human CX3CR1 cell line
T1 sequence (P49238 1-355): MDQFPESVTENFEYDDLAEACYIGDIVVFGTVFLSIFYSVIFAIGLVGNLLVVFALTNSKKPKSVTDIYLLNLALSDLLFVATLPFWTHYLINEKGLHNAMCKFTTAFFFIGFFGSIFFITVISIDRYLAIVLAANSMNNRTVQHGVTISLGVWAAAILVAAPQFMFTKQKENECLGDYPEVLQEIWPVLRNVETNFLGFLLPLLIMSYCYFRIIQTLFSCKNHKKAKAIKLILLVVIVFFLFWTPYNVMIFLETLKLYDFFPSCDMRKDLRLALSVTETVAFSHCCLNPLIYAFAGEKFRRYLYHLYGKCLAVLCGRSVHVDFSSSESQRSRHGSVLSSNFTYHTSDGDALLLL
Outline: (§1)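 Cells expressing human, mouse or rat CX3CR1 with a stably expressed Ca2+-sensitive photoprotein were loaded with 10 μM coelenterazine in tyrode buffer pH 7.4 for 3 h at room temperature. Agonist-mode luminescence kinetics were recorded for 90 s after compound injection on FLIPRTETRA. Dose-response runs were done in quadruplicate, with fractalkine as the reference agonist.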

[2] = molecular target: T2, rCX3CR1 (Rattus norvegicus, UniProt P35411); assay: as above; type: cell-based; conditions: rat CX3CR1 cell line
T2 construct: expressed in transfected cells; stably expresses a Ca2+ sensitive photo-protein
T2 sequence (P35411 1-354): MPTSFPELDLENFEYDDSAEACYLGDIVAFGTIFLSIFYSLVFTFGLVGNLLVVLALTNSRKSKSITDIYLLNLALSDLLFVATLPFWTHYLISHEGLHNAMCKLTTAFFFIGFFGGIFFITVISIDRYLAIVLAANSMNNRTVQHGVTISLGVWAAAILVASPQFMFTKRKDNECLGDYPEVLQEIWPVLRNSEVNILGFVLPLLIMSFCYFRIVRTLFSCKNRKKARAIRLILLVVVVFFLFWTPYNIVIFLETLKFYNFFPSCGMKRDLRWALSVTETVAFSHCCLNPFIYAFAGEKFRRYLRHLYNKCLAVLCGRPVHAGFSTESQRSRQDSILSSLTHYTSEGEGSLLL
Outline: as §1

[3] = molecular target: T3, mCX3CR1 (Mus musculus, UniProt Q9Z0D9); assay: as above; type: cell-based; conditions: mouse CX3CR1 cell line
T3 construct: expressed in transfected cells; stably expresses a Ca2+ sensitive photo-protein
T3 sequence (Q9Z0D9 1-354): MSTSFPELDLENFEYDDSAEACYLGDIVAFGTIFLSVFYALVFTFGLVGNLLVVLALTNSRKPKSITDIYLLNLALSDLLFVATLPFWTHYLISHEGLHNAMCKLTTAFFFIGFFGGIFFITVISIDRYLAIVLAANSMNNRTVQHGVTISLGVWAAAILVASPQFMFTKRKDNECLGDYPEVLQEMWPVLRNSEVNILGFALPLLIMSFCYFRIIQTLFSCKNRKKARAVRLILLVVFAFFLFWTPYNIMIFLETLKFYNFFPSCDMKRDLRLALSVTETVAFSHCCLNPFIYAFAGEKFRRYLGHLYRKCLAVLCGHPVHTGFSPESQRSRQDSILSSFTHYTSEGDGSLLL
Outline: as §1

[4] = molecular target: T4, mouse CX3CR1 receptor (Mus musculus, UniProt Q9Z0D9); assay: GTPγ[35S] Scintillation Proximity Assay, CHO-K1 cell membranes; type: biochemical
T4 construct: expressed in transfected cells; host or cells: CHO-K1 cell membranes
T4 sequence (Q9Z0D9 1-354): T3 sequence (Q9Z0D9 1-354)
Procedure: (§2) GTPγ[^35S] Scintillation Proximity Assay
(§3) Compounds were tested for agonist activity at the mouse and human CX3CR1 receptor using cell membranes from CHO-K1 cells expressing recombinant mouse or human CX3CR1. For agonist testing, membranes are mixed with GDP. In parallel, GTPγ[^35S] is mixed with the beads just before starting the reaction. The following reagents are successively added in the wells of an Optiplate (Perkin Elmer): 50 μL of test or reference ligand, 10 μL of assay buffer, 20 μL of the membranes:GDP mix, and 20 μL of the GTPγ[^35S]:beads mix. The plates are covered with a top seal, mixed on an orbital shaker for 2 min, and then incubated for 1 hour at room temperature. Then the plates are centrifuged for 10 min at 2000 rpm, incubated at room temperature 1 hour and counted for 1 min/well with a PerkinElmer TopCount reader.

[5] = molecular target: T1, hCX3CR1; assay: as above; type: biochemical; parameters: expressed in transfected cells; host or cells: CHO-K1 cell membranes
Procedure: as §2, §3

Compound | EC50 [1] [µM] | EC50 [2] [µM] | EC50 [3] [µM] | EC50 [4] [µM] | Emax [4] [%] | EC50 [5] [µM] | Emax [5] [%]
CN(C)CC1(CNC(=O)c2cc3c(s2)CCCCCC3)CCC1 [Example 23, N-[[1-[(dimethylamino)methyl]cyclobutyl]methyl]-4,5,6,7,8,9-hexahydrocycloocta[b]thiophene-2-carboxamide] | 10.5 | 9.5 | 11.5 |  |  |  | 
O=C(NCC1(CN2CCCC2)CC(O)C1)c1cc2c(s1)CCCCCC2 (stereo not drawn) [Example 32, N-[[3-hydroxy-1-(pyrrolidin-1-ylmethyl)cyclobutyl]methyl]-4,5,6,7,8,9-hexahydrocycloocta[b]thiophene-2-carboxamide] | 9.1 | 11.4 | 14.8 |  |  |  | 
CN(C)CC(C)(C)CNC(=O)c1cc2c(s1)CCCCCC2 [Example 70, N-[3-(dimethylamino)-2,2-dimethylpropyl]-4,5,6,7,8,9-hexahydrocycloocta[b]thiophene-2-carboxamide] | 17 | 26.1 | 44.7 | > 50 | 26 | 4.1 | 61
CN(C)CC1(CNC(=O)c2cc3c(s2)CCCCCC3)CCCC1 [Example 2, N-[[1-[(dimethylamino)methyl]cyclopentyl]methyl]-4,5,6,7,8,9-hexahydrocycloocta[b]thiophene-2-carboxamide] | 9.3 | 8.5 | 10.3 | 8.5 | 55 | 0.8 | 80
O=C(NCC1(CN2CCC(O)C2)CCCC1)c1cc2c(s1)CCCCCC2 (racemic) [Example 25, N-[[1-[(3-hydroxypyrrolidin-1-yl)methyl]cyclopentyl]methyl]-4,5,6,7,8,9-hexahydrocycloocta[b]thiophene-2-carboxamide] | 10.5 | 23.1 | 39.7 |  |  |  | 
CN(CCO)CC1(CNC(=O)c2cc3c(s2)CCCCCC3)CCC1 [Example 30, N-[[1-[[2-hydroxyethyl(methyl)amino]methyl]cyclobutyl]methyl]-4,5,6,7,8,9-hexahydrocycloocta[b]thiophene-2-carboxamide] | 10.2 | 13.4 | 17 |  |  |  | 
O=C(NCC1(CN2CCCC2)CCCC1)c1cc2c(s1)CCCCCC2 [Example 5, N-[[1-(pyrrolidin-1-ylmethyl)cyclopentyl]methyl]-4,5,6,7,8,9-hexahydrocycloocta[b]thiophene-2-carboxamide] | 8.4 | 10.2 | 11.3 |  |  |  | 
CN(C)CC1(CNC(=O)c2cc3c(s2)CCCCCC3)CC(O)C1 (stereo not drawn) [Example 31, N-[[1-[(dimethylamino)methyl]-3-hydroxycyclobutyl]methyl]-4,5,6,7,8,9-hexahydrocycloocta[b]thiophene-2-carboxamide] | 9.4 | 14.8 | 18.5 |  |  |  | 
O=C(NCC1(CN2CCCC2)CCC1)c1cc2c(s1)CCCCCC2 [Example 21, N-[[1-(pyrrolidin-1-ylmethyl)cyclobutyl]methyl]-4,5,6,7,8,9-hexahydrocycloocta[b]thiophene-2-carboxamide] | 6 | 5.8 | 6.6 |  |  |  | 
CC(C)(CNC(=O)c1cc2c(s1)CCCCCC2)CN1CCCC1 [Example 1, N-(2,2-dimethyl-3-pyrrolidin-1-ylpropyl)-4,5,6,7,8,9-hexahydrocycloocta[b]thiophene-2-carboxamide] | 11.5 | 13.9 | 15.7 | 41.4 | 44 | 1.3 | 60
O=C(NCC1(CN2CCCCC2)CCCC1)c1cc2c(s1)CCCCCC2 [Example 15, N-[[1-(piperidin-1-ylmethyl)cyclopentyl]methyl]-4,5,6,7,8,9-hexahydrocycloocta[b]thiophene-2-carboxamide] | 19.3 | 20 | 24.2 |  |  |  | 
O=C(NCC1(CN2CCC(O)CC2)CCCC1)c1cc2c(s1)CCCCCC2 [Example 28, N-[[1-[(4-hydroxypiperidin-1-yl)methyl]cyclopentyl]methyl]-4,5,6,7,8,9-hexahydrocycloocta[b]thiophene-2-carboxamide] | 8.2 | 9.4 | 10 |  |  |  | 
CC(C)(CNC(=O)c1cc2c(s1)CCCCCC2)CN1CCCCC1 [Example 13, N-(2,2-dimethyl-3-piperidin-1-ylpropyl)-4,5,6,7,8,9-hexahydrocycloocta[b]thiophene-2-carboxamide] | 12.3 | 16.9 | 16 |  |  |  | 
O=C(NCC1(CN2CCCC(O)C2)CCCC1)c1cc2c(s1)CCCCCC2 (stereo not drawn) [Example 27, N-[[1-[(3-hydroxypiperidin-1-yl)methyl]cyclopentyl]methyl]-4,5,6,7,8,9-hexahydrocycloocta[b]thiophene-2-carboxamide] | 11.3 | 10.8 | 12.7 |  |  |  | 
